Assay results from patent publication US10375956B2, “Herbicidally active 2-(substituted-phenyl)-cyclopentane-1,3-dione compounds and derivatives thereof” (Syngenta Limited, priority 2013, dated 2019).

Key:
Format in all cases: in vivo
[1] = tested on: Zea mays (ZEAMX, corn/maize); experiment: Test 1 glasshouse assay, post-emergence herbicidal activity; settings: 312 h, post-emergence (Example 1B Table 1), after 13 days, read-out: Percentage phytotoxicity ZEAMX
Description: (§1) Seeds of a variety of test species are sown in standard soil in pots. After cultivation for one day (pre-emergence) or after 8 days cultivation (post-emergence) under controlled conditions in a glasshouse (at 24/16° C., day/night; 14 hours light; 65% humidity), the plants are sprayed with an aqueous spray solution derived from the formulation of the “technical” (i.e. unformulated) active ingredient in acetone/water (50:50) solution containing 0.5% Tween 20 (polyoxyethylene sorbitan monolaurate, CAS Registry Number 9005-64-5). The test plants are then grown on under controlled conditions in a glasshouse (at 24/16° C., day/night; 14 hours light; 65% humidity) and watered twice daily. After 13 days for pre- or post-emergence, the test is evaluated visually, and an assessed percentage phytotoxicity score is given for each herbicidal application on each plant species (where 100%=total damage to plant; 0%=no damage to plant).
(§2) Test plants include the following: Abutilon theophrasti (ABUTH) and Amaranthus retroflexus (AMARE); these are all dicotyledonous (broadleaved) weeds. Setaria faberi (SETFA), Alopecurus myosuroides (ALOMY), and Echinochloa crus-galli (ECHCG); these are all grassy monocotyledonous weeds. Also: Zea mays (ZEAMX, corn/maize), which can be a grassy weed (“volunteer” corn) in some circumstances.

Setaria faberi (SETFA) = experiment: as above; settings: 312 h, post-emergence (Example 1B Table 1), after 13 days, read-out: Percentage phytotoxicity SETFA
Description: as §1, §2

[2] = tested on: Amaranthus retroflexus (AMARE); experiment: as above; settings: 312 h, post-emergence (Example 1B Table 1), after 13 days, read-out: Percentage phytotoxicity AMARE
Description: as §1, §2

[3] = tested on: Abutilon theophrasti (ABUTH); experiment: as above; settings: 312 h, post-emergence (Example 1B Table 1), after 13 days, read-out: Percentage phytotoxicity ABUTH
Description: as §1, §2

Lolium perenne (LOLPE) = experiment: Test 2 glasshouse assay (IF50 formulation, X-77), pre-emergence herbicidal activity; settings: 480 h, 20DAA, read-out: Percentage phytotoxicity LOLPE
Description: Seeds of a variety of monocotyledonous and dicotyledonous test plants are sown in standard soil in pots. The plants are cultivated for one day (for pre-emergence) or for about 12 days (for post-emergence) under controlled conditions in a glasshouse (warm climate species at 24/18° C., cool climate species at 20/16° C., both at day/night; 16 hours light; 65% humidity).
An “instant formulation”, known as the “IF50”, containing 50 g/liter (i.e. 5% w/v) of the “technical” (i.e. unformulated) active ingredient is prepared by dissolving the active ingredient in a mixture of organic solvents and emulsifier, details of which are provided in the Table below. This IF50 is then mixed with a small, variable amount of acetone to aid dissolution, before addition of a 0.2% v/v aqueous solution of the adjuvant X-77 (which is a mixture of alkyl aryl polyoxyethylene glycols and free fatty acids in isopropanol, CAS Registry number 11097-66-8), as the aqueous diluent, to form an aqueous spray solution which contains a predetermined concentration of the active ingredient (which varies depending on the application rate of the active ingredient to the plants) and 0.2% v/v of the adjuvant X-77. This aqueous spray solution is then sprayed onto the plants, after one day's cultivation (for pre-emergence), or after about 12 days' cultivation (range=10-13 days) (for post-emergence).
The test plants are then grown on, in a glasshouse (greenhouse) under controlled conditions (warm climate species at 24/18° C., cool climate species at 20/16° C., both at day/night; 16 hours light; 65% humidity) and are watered twice daily. 15 days after application of the test herbicide (15DAA) (for post-emergence), and 20 days after application of the test herbicide (20DAA) (for pre-emergence), the test plants are evaluated visually, and an assessed percentage phytotoxicity score is given for each herbicidal application on each plant species (with 100%=total damage to plant; 0%=no damage to plant).
Cool climate (“cool season”) grassy monocotyledonous weeds: Alopecurus myosuroides (ALOMY), Avena fatua (AVEFA), Lolium perenne (LOLPE).

[4] = tested on: Amaranthus retroflexus (AMARE); experiment: Test 1 glasshouse assay, pre-emergence herbicidal activity; settings: 312 h, visual evaluation after 13 days, read-out: Percentage phytotoxicity AMARE
How it was run: (§3)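 Visual percentage damage scores, assessed 13 days after treatment, where 0% means no damage and 100% total plant damage. Unformulated compound in acetone/water (50:50) with 0.5% Tween 20 was sprayed onto pots one day after sowing; glasshouse conditions 24/16° C, 14 hours light, 65% humidity.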

[5] = tested on: Echinochloa crus-galli (ECHCG); experiment: as above; settings: 312 h, visual evaluation after 13 days, read-out: Percentage phytotoxicity ECHCG
How it was run: as §3

SMILES	pest or weed control at 30 g/ha [1] [%]	pest or weed control at 250 g/ha [1] [%]	pest or weed control at 30 g/ha (Setaria faberi (SETFA)) [%]	pest or weed control at 250 g/ha (Setaria faberi (SETFA)) [%]	pest or weed control at 30 g/ha [2] [%]	pest or weed control at 250 g/ha [2] [%]	pest or weed control at 30 g/ha [3] [%]	pest or weed control at 250 g/ha [3] [%]	pest or weed control at 250 g/ha (Lolium perenne (LOLPE)) [%]	pest or weed control at 250 g/ha [4] [%]	pest or weed control at 250 g/ha [5] [%]	pest or weed control at 62.5 g/ha (Setaria faberi (SETFA)) [%]	pest or weed control at 62.5 g/ha [2] [%]	pest or weed control at 125 g/ha (Lolium perenne (LOLPE)) [%]	pest or weed control at 500 g/ha (Lolium perenne (LOLPE); 500 g/ha) [%]
C#CCC1CC(=O)C(c2c(Cl)cc(-c3ccc(F)cc3F)cc2OC)C1=O (stereo not drawn) [Compound A12]	100	100	100	100	30	80	50	80	100	100	100				
C#CCC1CC(=O)C(c2c(F)cc(-c3ccc(F)cc3)cc2OC)C1=O (stereo not drawn) [Compound A20, 2-[2-fluoro-4-(4-fluorophenyl)-6-methoxyphenyl]-4-prop-2-ynylcyclopentane-1,3-dione]	90	100	80	100	0	70	0	60		70	100				
C#CCC1CC(=O)C(c2c(Cl)cc(-c3ccc(F)c(F)c3)cc2OC)C1=O (stereo not drawn) [Compound A13]	100	100	100	100	60	90	70	80	100	100	100				
C#CCC1CC(=O)C(c2c(F)cc(-c3ccc(F)cc3F)cc2OC)C1=O (stereo not drawn) [Compound A21]	100	100	80	100	10	30	0	40		0	90				
C#CCC1CC(=O)C(c2c(Cl)cc(-c3ccc(Cl)cc3)cc2OC)C1=O (stereo not drawn) [Compound A11, 2-[2-chloro-4-(4-chlorophenyl)-6-methoxyphenyl]-4-prop-2-ynylcyclopentane-1,3-dione]	100	100	100	100	50	80	30	80	60	80	100				
C#CCC1CC(=O)C(c2c(Cl)cc(-c3ccc(F)cc3)cc2OC)C1=O (stereo not drawn) [Compound A7]	100	100	100	100	20	80	30	80	60	70	100				
C#CCC1CC(=O)C(c2c(Cl)cc(-c3ccc(Cl)cn3)cc2OC)C1=O (stereo not drawn) [Compound A10]	100	100	100	100	80	80	80	80	70	100	100				
C#CCC1CC(=O)C(c2c(C)cc(-c3ccc(F)cc3)cc2C)C1=O (stereo not drawn) [Compound A1, 2-[4-(4-fluorophenyl)-2,6-dimethyl-phenyl]-4-prop-2-ynylcyclopentane-1,3-dione]				100		70				80	100	90	30	80	
C#CCC1CC(=O)C(c2c(CC)cc(C)cc2CC)C1=O (stereo not drawn) [Compound A25, 2-(2,6-diethyl-4-methyl-phenyl)-4-(prop-2-ynyl)-cyclopentane-1,3-dione]									90		100				
C#CCC1CC(=O)C(c2cc(-c3ncc(Cl)cn3)ccc2C)C1=O (stereo not drawn) [Compound A19]	40	30	70	90	0	20	0	30		40	50				
C#CCC1CC(=O)C(c2cc(-c3ccc(Cl)cc3Cl)ccc2C)C1=O (stereo not drawn) [Compound A15]		80		70		40		60	0						
C#CCC1CC(OC(C)=O)=C(c2c(C)cc(-c3ccc(F)cc3)cc2C)C1=O (stereo not drawn) [Compound A45]				100		80				90	100	90	20	90	
C#CCC1CC(=O)C(c2cc(-c3ncc(Cl)cc3F)ccc2C)C1=O (stereo not drawn) [Compound A18]	60	80	60	80	0	60	0	60		40	60				
C#CCC1C(=O)C(c2c(C)cc(C)cc2C)C(=O)C1CC#C (stereo not drawn) [Compound A42]											80				100
C#CCC1CC(=O)C(c2c(C)cc(C)cc2C)C1=O (stereo not drawn) [Compound A23]									100		100				
